Several values for one entry are separate records, joined by “and”; a condition that tells them apart may be missing. Equal values may be shown once. Read-outs that look alike come from different tables or passages of the source. Starred links: 1 amine or outer side, 2 acyl side, 3 side chain; linkers in the order of their positions; H or OH if unused. Non-standard residues stand in square brackets, D forms with d. Residues, ends and D or L forms follow the SMILES beside them. Groups on a side chain read outwards from the residue. *: point of attachment. γGlu = O=C(O)[C@H](CCC(=O)[*:2])N[*:1]; αMeF = C[C@](N)(Cc1ccccc1)C(=O)O; αMeK = C[C@](N)(CCCCN)C(=O)O; Lauroyl = CCCCCCCCCCCC(=O)*; αMeS = C[C@](N)(CO)C(=O)O; AEEA = NCCOCCOCC(=O)O; Aib = CC(C)(N)C(=O)O
Tests used:
[1] = Canine study, MEDI7219 multi-unit particulate (MUPS) formulations (Example 16); assay type: in vivo; conditions: Oral capsule, MUPS 9 mg peptide, 88 mg Na CDC, 190 mg PG
Procedure: Ten different Multi-unit particulate (MUPS) formulations were prepared (Table 23) using the MEDI7219 (SEQ ID NO:2) peptide and permeation enhancers. The manufacturing process for the MUPS formulation was as follows. A solution of MEDI7219 (SEQ ID NO:2) peptide, sodium chenodeoxycholate and propyl gallate was prepared in water and sprayed onto sugar spheres in a Glatt Mini fluid bed coater. Following drying, sugar spheres coated with peptide and permeation enhancers were coated to result in the compositions described in Table 23.

[2] = Rat intraduodenal study, MEDI7219 with new permeation enhancer formulations (Example 7); assay type: in vivo; conditions: for AUC(0-t) / Cmax / Tmax / half-life: plasma; for half-life: read-out: T ½ (converted)
Procedure: The following rat ID study compared oral bioavailability of the MEDI7219 (SEQ ID NO:2) peptide formulated with new permeation enhancer formulations after intraduodenal administration in rats. All test articles were prepared as solutions in 50 mM Tris, 150 mM mannitol, 0.02% polysorbate 80, pH 8.5. Table 8 gives the formulation and pharmacokinetic analysis details.

[3] = iv, 0.01 mg/kg, IV, 0.01 mg/kg, Group 1 control, 0.01 mg/mL peptide
[4] = other: intraduodenal (ID), 1 mg/kg, ID, 1 mg/kg, Group 2: 0.5 mg/mL peptide, 25 mg/mL Na CDC, 12.5 mg/mL Ethyl Gallate
[5] = other: intraduodenal (ID), 1 mg/kg, ID, 1 mg/kg, Group 3: 0.5 mg/mL peptide, 12.5 mg/mL Na CDC, 25 mg/mL Ethyl Gallate
[6] = other: intraduodenal (ID), 1 mg/kg, ID, 1 mg/kg, Group 4: 0.5 mg/mL peptide, 25 mg/mL Na CDC, 12.5 mg/mL Octyl Gallate
[7] = other: intraduodenal (ID), 1 mg/kg, ID, 1 mg/kg, Group 5: 0.5 mg/mL peptide, 25 mg/mL Chenodeoxycholic acid, 12.5 mg/mL PG
[8] = other: intraduodenal (ID), 1 mg/kg, ID, 1 mg/kg, Group 8: 0.5 mg/mL peptide, 25 mg/mL Na CDC, 12.5 mg/mL PG

F ([1]; 10% Carbopol 71G Mucoadhesive polymer + 25% pH 5.5 EC): 0.393% | F ([1]; 10% Carbopol 71G Mucoadhesive polymer + 25% pH 7.0 EC): 0.582% | F ([1]; 10% Polycarbophill AA Mucoadhesive polymer + 25% pH 5.5 EC): 0.124% | F ([1]; 10% Polycarbophill AA Mucoadhesive polymer + 25% pH 7.0 EC): 0.572% | F ([1]; + 10% Eudragit(RL + RS) + 25% pH 5.5 EC): 0.537% | F ([1]; pH 5.5 EC): 1.30% | F ([1]; pH 7.0 EC): 2.54% | F ([2]; ID, 1 mg/kg, Group 2: 0.5 mg/mL peptide, 25 mg/mL Na CDC, 12.5 mg/mL Ethyl Gallate): 1.11% | F ([2]; ID, 1 mg/kg, Group 3: 0.5 mg/mL peptide, 12.5 mg/mL Na CDC, 25 mg/mL Ethyl Gallate): 2.14% | F ([2]; ID, 1 mg/kg, Group 4: 0.5 mg/mL peptide, 25 mg/mL Na CDC, 12.5 mg/mL Octyl Gallate): 1.12% | F ([2]; ID, 1 mg/kg, Group 5: 0.5 mg/mL peptide, 25 mg/mL Chenodeoxycholic acid, 12.5 mg/mL PG, 1 mg/kg): 1.96% and 1.92% | F ([2]; ID, 1 mg/kg, Group 6: 0.5 mg/mL peptide, 25 mg/mL Ursodeoxycholic acid, 12.5 mg/mL PG): 0% | F ([2]; ID, 1 mg/kg, Group 7: 0.5 mg/mL peptide, 25 mg/mL Na CDC, 12.5 mg/mL PG, 25 mg/mL N-Acetyl Cysteine): 0% | F ([2]; ID, 1 mg/kg, Group 8: 0.5 mg/mL peptide, 25 mg/mL Na CDC, 12.5 mg/mL PG): 1.45% | F ([2]; IV, 0.01 mg/kg, Group 1 control, 0.01 mg/mL peptide): 100% | AUC(0-t) [2, 3]: 1030 ng·h/mL | Cmax [2, 3]: 187 ng/mL | Tmax [2, 3]: 0.083 h | half-life [2, 3]: 8.9 h | AUC(0-t) [2, 4]: 1110 ng·h/mL | Cmax [2, 4]: 175 ng/mL | Tmax [2, 4]: 0.25 h | half-life [2, 4]: 10.3 h | AUC(0-t) [2, 5]: 1970 ng·h/mL | Cmax [2, 5]: 282 ng/mL | Tmax [2, 5]: 0.25 h | half-life [2, 5]: 7.96 h | AUC(0-t) [2, 6]: 1170 ng·h/mL | Cmax [2, 6]: 240 ng/mL | Tmax [2, 6]: 0.25 h | half-life [2, 6]: 7.97 h | AUC(0-t) [2, 7]: 1890 ng·h/mL | Cmax [2, 7]: 546 ng/mL | Tmax [2, 7]: 0.25 h | half-life [2, 7]: 8.6 h | AUC(0-t) [2, 8]: 1540 ng·h/mL | Cmax [2, 8]: 140 ng/mL | Tmax [2, 8]: 2 h | half-life [2, 8]: 8.83 h
SMILES: CCCCCCCCCCCC(=O)N[C@@H](CCC(=O)NCCOCCOCC(=O)NCCOCCOCC(=O)NCCCC[C@H](NC(=O)[C@H](C)NC(=O)[C@@H](NC(=O)[C@](C)(Cc1ccccc1)NC(=O)[C@H](CCC(=O)O)NC(=O)[C@](C)(CCCCN)NC(=O)[C@H](C)NC(=O)[C@H](C)NC(=O)[C@H](CCC(=O)O)NC(=O)CNC(=O)[C@H](CCC(=O)O)NC(=O)[C@H](CC(C)C)NC(=O)[C@H](CCCCNC(=O)COCCOCCNC(=O)COCCOCCNC(=O)CC[C@H](NC(=O)CCCCCCCCCCC)C(=O)O)NC(=O)[C@H](CO)NC(=O)[C@](C)(CO)NC(=O)[C@@H](NC(=O)[C@H](CC(=O)O)NC(=O)[C@H](CO)NC(=O)[C@@H](NC(=O)[C@](C)(Cc1ccccc1)NC(=O)[C@H](CO)NC(=O)CNC(=O)[C@H](CCC(=O)O)NC(=O)C(C)(C)NC(=O)[C@@H](N)Cc1c[nH]cn1)[C@@H](C)O)C(C)C)[C@@H](C)CC)C(=O)N[C@H](C(=O)N[C@H](C(=O)N[C@@H](CCC(=O)O)C(=O)NCC(=O)NCC(N)=O)C(C)C)C(C)C)C(=O)O [MEDI7219, Free-H-[AIB]-EGS-[αMePhe]-TSDV-[αMeSer]-SK[(PEG2)2-γE-Lauroyl]-LEGEAA-[αMeLys]-E-[αMePhe]-IAK[(PEG2)2-γE-Lauroyl]-VVEGG-amide] (H-H[Aib]EGS[αMeF]TSDV[αMeS]SK([AEEA-AEEA-γGlu-Lauroyl])LEGEAA[αMeK]E[αMeF]IAK([AEEA-AEEA-γGlu-Lauroyl])VVEGG-NH2)
